{"source": "patent US20240383875A1", "about": "“Benzimidazole Pyridine Derivatives” (Hoffmann-La Roche Inc., priority 2022, published 2024)", "type_in_all_cases": "biochemical", "key": {"SIK1": {"molecular_target": "SIK1 (Homo sapiens, UniProt P57059)", "sequence (P57059 whole entry)": "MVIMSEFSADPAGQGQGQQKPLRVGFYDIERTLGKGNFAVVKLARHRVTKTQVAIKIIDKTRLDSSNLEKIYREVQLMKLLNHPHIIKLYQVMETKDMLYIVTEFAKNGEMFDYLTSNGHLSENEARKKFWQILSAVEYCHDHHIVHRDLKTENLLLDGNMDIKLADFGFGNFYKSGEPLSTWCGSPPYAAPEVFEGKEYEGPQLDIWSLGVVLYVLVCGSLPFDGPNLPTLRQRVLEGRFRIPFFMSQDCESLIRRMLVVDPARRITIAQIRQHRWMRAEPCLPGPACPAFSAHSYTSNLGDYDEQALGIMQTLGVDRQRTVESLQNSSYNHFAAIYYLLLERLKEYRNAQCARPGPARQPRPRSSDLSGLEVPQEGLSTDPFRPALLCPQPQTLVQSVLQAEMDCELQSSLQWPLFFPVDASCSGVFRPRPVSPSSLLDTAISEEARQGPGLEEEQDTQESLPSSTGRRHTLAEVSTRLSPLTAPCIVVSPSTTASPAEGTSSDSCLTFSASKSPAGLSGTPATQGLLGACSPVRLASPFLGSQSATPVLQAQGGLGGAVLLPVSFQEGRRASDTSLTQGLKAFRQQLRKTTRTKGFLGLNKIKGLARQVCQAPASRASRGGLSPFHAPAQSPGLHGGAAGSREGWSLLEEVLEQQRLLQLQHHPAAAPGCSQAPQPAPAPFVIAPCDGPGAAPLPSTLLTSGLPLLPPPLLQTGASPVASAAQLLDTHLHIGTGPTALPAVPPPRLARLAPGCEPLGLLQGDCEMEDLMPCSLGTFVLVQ", "test": "Enzymatic activity assay SIK1, RapidFire mass spectrometry (phosphorylation of CHK-peptide)", "conditions": "RapidFire MS, inhibition of SIK1; read-out: SIK1 RF IC50", "procedure,_shortened": "(§1)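 Compounds (12-point, 3-fold, generally 30 μM to 170 pM) were pre-incubated 30 min at ambient temperature with SIK1 (5 nM), SIK2 (0.5 nM) or SIK3 (1.5 nM) in HEPES pH 7.0/magnesium acetate buffer. CHK-peptide (10 μM solution) and ATP (100 μM solution) were then added for 45 min before formic acid quench.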"}, "SIK3": {"molecular_target": "SIK3 (Homo sapiens, UniProt Q9Y2K2)", "sequence (Q9Y2K2 whole entry)": "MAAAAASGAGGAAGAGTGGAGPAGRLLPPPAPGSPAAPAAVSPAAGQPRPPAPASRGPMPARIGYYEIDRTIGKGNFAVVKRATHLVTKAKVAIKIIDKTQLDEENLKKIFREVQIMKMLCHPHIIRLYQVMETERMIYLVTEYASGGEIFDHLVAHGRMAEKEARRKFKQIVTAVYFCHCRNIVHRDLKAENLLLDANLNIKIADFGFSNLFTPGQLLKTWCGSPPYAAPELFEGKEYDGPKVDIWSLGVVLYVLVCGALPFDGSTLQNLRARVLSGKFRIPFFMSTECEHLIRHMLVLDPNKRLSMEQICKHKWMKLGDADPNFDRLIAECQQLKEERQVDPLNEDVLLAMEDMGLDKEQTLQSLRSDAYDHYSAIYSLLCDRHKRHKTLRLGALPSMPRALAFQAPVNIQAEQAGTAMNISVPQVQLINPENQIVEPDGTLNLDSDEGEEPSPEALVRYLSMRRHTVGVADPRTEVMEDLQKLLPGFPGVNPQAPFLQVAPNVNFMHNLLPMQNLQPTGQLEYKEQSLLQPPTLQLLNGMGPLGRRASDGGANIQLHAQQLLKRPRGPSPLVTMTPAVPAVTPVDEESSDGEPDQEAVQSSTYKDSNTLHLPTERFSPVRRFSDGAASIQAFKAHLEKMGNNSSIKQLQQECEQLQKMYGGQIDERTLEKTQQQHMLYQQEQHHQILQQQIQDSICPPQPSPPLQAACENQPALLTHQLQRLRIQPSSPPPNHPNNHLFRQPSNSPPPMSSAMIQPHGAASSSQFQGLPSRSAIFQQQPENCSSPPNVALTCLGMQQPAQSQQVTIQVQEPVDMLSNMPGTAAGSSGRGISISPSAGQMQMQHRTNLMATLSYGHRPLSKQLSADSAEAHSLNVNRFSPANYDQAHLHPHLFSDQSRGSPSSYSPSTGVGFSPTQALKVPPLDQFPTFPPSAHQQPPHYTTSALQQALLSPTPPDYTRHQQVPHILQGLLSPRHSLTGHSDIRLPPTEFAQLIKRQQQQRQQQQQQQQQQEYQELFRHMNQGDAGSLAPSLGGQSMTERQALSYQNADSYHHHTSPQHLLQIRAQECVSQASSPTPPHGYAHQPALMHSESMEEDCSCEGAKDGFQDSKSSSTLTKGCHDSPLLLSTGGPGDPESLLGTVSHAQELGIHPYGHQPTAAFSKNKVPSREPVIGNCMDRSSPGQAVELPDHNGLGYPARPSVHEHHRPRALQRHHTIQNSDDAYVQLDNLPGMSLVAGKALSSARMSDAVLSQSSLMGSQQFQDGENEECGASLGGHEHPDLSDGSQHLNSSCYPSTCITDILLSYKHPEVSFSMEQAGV", "test": "Enzymatic activity assay SIK3, RapidFire mass spectrometry (phosphorylation of CHK-peptide)", "conditions": "RapidFire MS, inhibition of SIK3; read-out: SIK3 RF IC50", "procedure,_shortened": "as §1"}, "SIK2": {"molecular_target": "SIK2 (Homo sapiens, UniProt Q9H0K1)", "sequence (Q9H0K1 whole entry)": "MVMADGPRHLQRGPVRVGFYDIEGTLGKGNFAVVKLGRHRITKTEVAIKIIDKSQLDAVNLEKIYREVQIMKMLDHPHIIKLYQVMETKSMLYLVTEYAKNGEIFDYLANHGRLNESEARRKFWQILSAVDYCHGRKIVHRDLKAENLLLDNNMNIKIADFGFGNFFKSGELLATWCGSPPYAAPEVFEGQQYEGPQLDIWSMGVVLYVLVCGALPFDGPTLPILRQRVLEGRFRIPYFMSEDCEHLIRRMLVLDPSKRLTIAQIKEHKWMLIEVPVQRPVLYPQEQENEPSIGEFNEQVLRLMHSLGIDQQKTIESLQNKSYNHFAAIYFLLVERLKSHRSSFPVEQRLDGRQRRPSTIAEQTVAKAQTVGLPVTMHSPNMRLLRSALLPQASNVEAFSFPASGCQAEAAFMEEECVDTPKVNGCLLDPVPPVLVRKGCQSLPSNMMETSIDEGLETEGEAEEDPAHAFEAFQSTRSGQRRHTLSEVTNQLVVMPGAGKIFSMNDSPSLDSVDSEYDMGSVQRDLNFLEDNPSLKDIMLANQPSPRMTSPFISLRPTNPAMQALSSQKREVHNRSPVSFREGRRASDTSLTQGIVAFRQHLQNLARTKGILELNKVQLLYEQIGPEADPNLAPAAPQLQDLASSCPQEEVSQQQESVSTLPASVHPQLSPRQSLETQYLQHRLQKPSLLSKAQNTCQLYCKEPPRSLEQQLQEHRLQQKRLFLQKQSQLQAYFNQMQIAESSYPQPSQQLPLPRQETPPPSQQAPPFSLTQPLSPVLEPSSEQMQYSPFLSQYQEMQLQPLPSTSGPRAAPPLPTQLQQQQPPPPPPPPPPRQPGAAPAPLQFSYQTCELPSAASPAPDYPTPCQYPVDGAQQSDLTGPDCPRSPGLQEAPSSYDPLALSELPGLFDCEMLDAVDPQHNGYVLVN", "test": "Enzymatic activity assay SIK2, RapidFire mass spectrometry (phosphorylation of CHK-peptide)", "conditions": "RapidFire MS, inhibition of SIK2; read-out: SIK2 RF IC50", "procedure,_shortened": "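SIK2 (0.5 nM) in pH 7.0 HEPES buffer with 10 mM Mg acetate phosphorylates CHK-peptide (10 μM solution) with 100 μM ATP solution, 45 min ambient, then formic acid quench.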"}}, "data": [{"compound": "Cc1ccc(Nc2ccc3ncn(-c4ccc(C(C)O)c(-n5ncc(C#N)c5C)n4)c3c2)nn1", "note": "(stereo not drawn) [Example 150, 1-[3-(1-Hydroxyethyl)-6-[6-[(6-methylpyridazin-3-yl)amino]benzimidazol-1-yl]-2-pyridyl]-5-methyl-pyrazole-4-carbonitrile]", "values": [{"measurement": "IC50", "setting": "SIK1", "result": 24400, "unit": "nM"}, {"measurement": "IC50", "setting": "SIK3", "result": 33.5, "unit": "nM"}, {"measurement": "IC50", "setting": "SIK2", "result": 207, "unit": "nM"}]}, {"compound": "Cc1ccc(Nc2ccc3c(c2)ncn3-c2ccc(C(C)O)c(-n3ncc(C#N)c3C)n2)nn1", "note": "(stereo not drawn) [Example 151, 1-[3-(1-Hydroxyethyl)-6-[5-[(6-methylpyridazin-3-yl)amino]benzimidazol-1-yl]-2-pyridyl]-5-methyl-pyrazole-4-carbonitrile]", "values": [{"measurement": "IC50", "setting": "SIK1", "result": 13600, "unit": "nM"}, {"measurement": "IC50", "setting": "SIK3", "result": 1880, "unit": "nM"}, {"measurement": "IC50", "setting": "SIK2", "result": 4710, "unit": "nM"}]}, {"compound": "CNC(=O)c1cc(C)n(-c2nc(-n3cnc4cc(Nc5ccc(C)nn5)ccc43)ccc2C(C)O)n1", "note": "(stereo not drawn) [Example 152, 1-[3-(1-Hydroxyethyl)-6-[5-[(6-methylpyridazin-3-yl)amino]benzimidazol-1-yl]-2-pyridyl]-N,5-dimethyl-pyrazole-3-carboxamide]", "values": [{"measurement": "IC50", "setting": "SIK1", "result": 5040, "unit": "nM"}, {"measurement": "IC50", "setting": "SIK3", "result": 16.1, "unit": "nM"}, {"measurement": "IC50", "setting": "SIK2", "result": 82.1, "unit": "nM"}]}, {"compound": "Cc1cc(C#N)nn1-c1nc(-n2cnc3cc(NC4CCN(C)C(=O)C4)ccc32)ccc1C(C)O", "note": "(stereo not drawn) [Example 155, 1-[3-(1-Hydroxyethyl)-6-[5-[(2-keto-1-methyl-4-piperidyl)amino]benzimidazol-1-yl]-2-pyridyl]-5-methyl-pyrazole-3-carbonitrile]", "values": [{"measurement": "IC50", "setting": "SIK1", "result": 361, "unit": "nM"}, {"measurement": "IC50", "setting": "SIK3", "result": 26.5, "unit": "nM"}, {"measurement": "IC50", "setting": "SIK2", "result": 90.2, "unit": "nM"}]}, {"compound": "COc1cc(C)n(-c2nc(-n3cnc4cc(Nc5ccc(C)nn5)ccc43)ccc2CO)n1", "note": "[Example 158, [2-(3-methoxy-5-methyl-pyrazol-1-yl)-6-[5-[(6-methylpyridazin-3-yl)amino]benzimidazol-1-yl]-3-pyridyl]methanol]", "values": [{"measurement": "IC50", "setting": "SIK1", "result": 2150, "unit": "nM"}, {"measurement": "IC50", "setting": "SIK3", "result": 12.8, "unit": "nM"}, {"measurement": "IC50", "setting": "SIK2", "result": 41.9, "unit": "nM"}]}, {"compound": "Cc1ccc(Nc2ccc3c(c2)ncn3-c2ccc(C(C)O)c(-c3c(C)noc3C)n2)nn1", "note": "(stereo not drawn) [Example 159, 1-[2-(3,5-Dimethylisoxazol-4-yl)-6-[5-[(6-methylpyridazin-3-yl)amino]benzimidazol-1-yl]-3-pyridyl]ethanol]", "values": [{"measurement": "IC50", "setting": "SIK1", "result": 23800, "unit": "nM"}, {"measurement": "IC50", "setting": "SIK3", "result": 70.2, "unit": "nM"}, {"measurement": "IC50", "setting": "SIK2", "result": 306, "unit": "nM"}]}, {"compound": "COc1ccnnc1Nc1ccc2c(c1)ncn2-c1ccc(C(C)O)c(-n2nc(C#N)cc2C)n1", "note": "(stereo not drawn) [Example 160, 1-[3-(1-Hydroxyethyl)-6-[5-[(4-methoxypyridazin-3-yl)amino]benzimidazol-1-yl]-2-pyridyl]-5-methyl-pyrazole-3-carbonitrile]", "values": [{"measurement": "IC50", "setting": "SIK1", "result": 223, "unit": "nM"}, {"measurement": "IC50", "setting": "SIK3", "result": 1.2, "unit": "nM"}, {"measurement": "IC50", "setting": "SIK2", "result": 3.2, "unit": "nM"}]}, {"compound": "Cc1cc(C#N)nn1-c1nc(-n2cnc3cc(NC4CC(=O)N(C)C4)ccc32)ccc1C(C)O", "note": "(stereo not drawn) [Example 161, 1-[3-(1-Hydroxyethyl)-6-[5-[(5-keto-1-methyl-pyrrolidin-3-yl)amino]benzimidazol-1-yl]-2-pyridyl]-5-methyl-pyrazole-3-carbonitrile]", "values": [{"measurement": "IC50", "setting": "SIK1", "result": 450, "unit": "nM"}, {"measurement": "IC50", "setting": "SIK3", "result": 66.1, "unit": "nM"}, {"measurement": "IC50", "setting": "SIK2", "result": 181, "unit": "nM"}]}, {"compound": "Cc1ccc(Nc2ccc3c(c2)ncn3-c2ccc(C(C)O)c(-c3ccncc3C)n2)nn1", "note": "(stereo not drawn) [Example 162, 1-[6-[5-[(6-Methylpyridazin-3-yl)amino]benzimidazol-1-yl]-2-(3-methyl-4-pyridyl)-3-pyridyl]ethanol]", "values": [{"measurement": "IC50", "setting": "SIK1", "result": 8570, "unit": "nM"}, {"measurement": "IC50", "setting": "SIK3", "result": 46.9, "unit": "nM"}, {"measurement": "IC50", "setting": "SIK2", "result": 198, "unit": "nM"}]}, {"compound": "Cc1ccc(Nc2ccc3c(c2)ncn3-c2ccc(C(C)O)c(-c3cncnc3NC3CC3)n2)nn1", "note": "(stereo not drawn) [Example 163, 1-[2-[4-(Cyclopropylamino)pyrimidin-5-yl]-6-[5-[(6-methylpyridazin-3-yl)amino]benzimidazol-1-yl]-3-pyridyl]ethanol]", "values": [{"measurement": "IC50", "setting": "SIK1", "result": "> 30000", "unit": "nM"}, {"measurement": "IC50", "setting": "SIK3", "result": 181, "unit": "nM"}, {"measurement": "IC50", "setting": "SIK2", "result": 964, "unit": "nM"}]}, {"compound": "Cc1ccc(Nc2ccc3c(c2)ncn3-c2ccc(C(C)O)c(-c3cnc(O)cc3C(F)(F)F)n2)nn1", "note": "(stereo not drawn) [Example 164, 5-[3-(1-Hydroxyethyl)-6-[5-[(6-methylpyridazin-3-yl)amino]benzimidazol-1-yl]-2-pyridyl]-4-(trifluoromethyl)pyridin-2-ol]", "values": [{"measurement": "IC50", "setting": "SIK1", "result": "> 30000", "unit": "nM"}, {"measurement": "IC50", "setting": "SIK3", "result": 963, "unit": "nM"}, {"measurement": "IC50", "setting": "SIK2", "result": 3300, "unit": "nM"}]}]}
